Measured values: US10329289B2, “6,7-dihydro-5H-pyrrolo[3,4-B]pyridin-5-one allosteric modulators of the M4 muscarinic acetylcholine receptor” (Merck Sharp & Dohme Corp., priority 2015, dated 2019)

Target: T1, human M4 muscarinic acetylcholine receptor (Homo sapiens, UniProt P08173)
T1 construct: expressed in transfected cells; host or cells: CHO-K1
T1 sequence (P08173 1-479): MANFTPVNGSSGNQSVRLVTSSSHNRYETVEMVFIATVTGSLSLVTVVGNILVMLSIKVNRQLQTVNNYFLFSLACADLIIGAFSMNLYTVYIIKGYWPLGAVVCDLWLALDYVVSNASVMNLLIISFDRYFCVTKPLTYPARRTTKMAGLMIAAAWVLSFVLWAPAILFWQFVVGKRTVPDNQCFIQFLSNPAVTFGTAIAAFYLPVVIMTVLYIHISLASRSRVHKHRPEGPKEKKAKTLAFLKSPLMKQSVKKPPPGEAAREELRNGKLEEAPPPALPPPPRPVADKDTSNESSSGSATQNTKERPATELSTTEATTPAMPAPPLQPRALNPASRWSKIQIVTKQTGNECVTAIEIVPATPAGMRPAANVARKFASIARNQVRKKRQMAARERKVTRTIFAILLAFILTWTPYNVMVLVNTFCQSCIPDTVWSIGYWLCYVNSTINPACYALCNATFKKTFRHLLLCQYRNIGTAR
Experiment: human FLIPR-based M4 PAM assay (Ca2+ mobilization, CHO-K1 cells with human M4 receptor and Gαqi5)
Assay type: cell-based
Conditions: acetylcholine at 20% of maximum response, read-out: M4 PAM IP
In short: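 CHO-K1 cells stably expressing human M4 and chimeric Gαqi5 were dye-loaded ~1 h at 37 °C and read for Ca2+ fluorescence. Compound followed by acetylcholine at an EC20 (sometimes an EC70 third addition); inflection point from a 4-parameter logistic fit.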

Point of comparison: `Cc1cc2c(nc1N1CCC(OCC3(CO)CC3)CC1)CNC2=O` [Example 312, 2-(4-((1-(hydroxymethyl)cyclopropyl)methoxy)piperidin-1-yl)-3-methyl-6,7-dihydro-5H-pyrrolo[3,4-b]pyridin-5-one], EC50 0.651 µM. Against it:
- Cc1cc2c(nc1N1CCC(Oc3cccc(C=O)c3)CC1)CNC2=O [Example 308, 3-((1-(3-Methyl-5-oxo-6,7-dihydro-5H-pyrrolo[3,4-b]pyridin-2-yl)piperidin-4-yl)oxy)benzaldehyde] — 3.7-fold lower, 0.176 µM
- Cc1cc2c(nc1N1CCC(Oc3cccc(CO)c3)CC1)CNC2=O [Example 309, 2-(4-(3-(Hydroxymethyl)phenoxy)piperidin-1-yl)-3-methyl-6,7-dihydro-5H-pyrrolo[3,4-b]pyridin-5-one] — 14-fold lower, 0.047 µM
- COc1ccc(OC2CCN(c3nc4c(cc3C)C(=O)N(CC(N)=O)C4)CC2)cn1 [Example 310, 2-(2-(4-((6-methoxypyridin-3-yl)oxy)piperidin-1-yl)-3-methyl-5-oxo-5,7-dihydro-6H-pyrrolo[3,4-b]pyridin-6-yl)acetamide] — 6.4-fold lower, 0.101 µM
- Cc1c(N2CCC(Oc3ccc4c(c3)COC4)CC2)nc2c(c1C)C(=O)N(CC(N)=O)C2 [Example 310A, 2-(2-(4-((1,3-dihydro-2-benzofuran-5-yl)oxy)piperidin-1-yl)-3,4-dimethyl-5-oxo-5,7-dihydro-6H-pyrrolo[3,4-b]pyridin-6-yl)acetamide] — 19-fold lower, 0.035 µM
- Cc1cc2c(nc1N1CCC(OCC3CC3(C)C)CC1)CNC2=O (centres unmarked) [Example 311, 2-(4-((2,2-Dimethylcyclopropyl)methoxy)piperidin-1-yl)-3-methyl-6,7-dihydro-5H-pyrrolo[3,4-b]pyridin-5-one] — within 1.5-fold, 0.686 µM
- Cc1cc2c(nc1N1CCC(Oc3cnn(C4CC4)c3)CC1)CNC2=O [Example 311A, 2-(4-((1-cyclopropyl-1H-pyrazol-4-yl)oxy)piperidin-1-yl)-3-methyl-6,7-dihydro-5H-pyrrolo[3,4-b]pyridin-5-one] — 6-fold lower, 0.108 µM
- COCCn1cc(OC2CCN(c3nc4c(cc3C)C(=O)NC4)CC2)cn1 [Example 312A, 2-(4-((1-(2-methoxyethyl)-1H-pyrazol-4-yl)oxy)piperidin-1-yl)-3-methyl-6,7-dihydro-5H-pyrrolo[3,4-b]pyridin-5-one] — 3.9-fold higher, 2.51 µM
- Cc1cc2c(nc1N1CCC(OCC3(O)CC3)CC1)CNC2=O [Example 312B, 2-(4-((1-hydroxycyclopropyl)methoxy)piperidin-1-yl)-3-methyl-6,7-dihydro-5H-pyrrolo[3,4-b]pyridin-5-one] — 1.7-fold higher, 1.12 µM
- Cc1cc2c(nc1N1CCC(Oc3ccc4[nH]nc(Cl)c4c3)CC1)CNC2=O [Example 313, 2-(4-((3-Chloro-1H-indazol-5-yl)ox)piperidin-1-yl)-3-methyl-6,7-dihydro-5H-pyrrolo[3,4-b]pyridin-5-one] — 22-fold lower, 0.03 µM
- Cc1cc2c(nc1N1CCC(Oc3ccc4[nH]ncc4c3Cl)CC1)CNC2=O [Example 314, 2-(4-((4-Chloro-1H-indazol-5-yl)ox)piperidin-1-yl)-3-methyl-6,7-dihydro-5H-pyrrolo[3,4-b]pyridin-5-one] — within 1.5-fold, 0.676 µM
- Cc1cc2c(nc1N1CCC(Oc3ccc4[nH]nc(Br)c4c3)CC1)CNC2=O [Example 315, 2-(4-((3-bromo-1H-indazol-5-yl)oxy)piperidin-1-yl)-3-methyl-6,7-dihydro-5H-pyrrolo[3,4-b]pyridin-5-one] — 8.1-fold lower, 0.08 µM
- Cc1cc2c(nc1N1CCC(Oc3ccc4[nH]nc(C#N)c4c3)CC1)CNC2=O [Example 316, 5-((1-(3-Methyl-5-oxo-6,7-dihydro-5H-pyrrolo[3,4-b]pyridin-2-yl)piperidin-4-yl)oxy)-1H-indazole-3-carbonitrile] — 3.3-fold lower, 0.198 µM
- Cc1cc2c(nc1N1CCC(Oc3cc(F)c4[nH]ncc4c3)CC1)CNC2=O [Example 317, 2-(4-((7-Fluoro-1H-indazol-5-yl)ox)piperidin-1-yl)-3-methyl-6,7-dihydro-5H-pyrrolo[3,4-b]pyridin-5-one] — 5.2-fold lower, 0.125 µM
- COc1ccc(OC2CCN(c3nc4c(cc3C)C(=O)N(C[C@@H](O)C(F)(F)F)C4)CC2)cn1 [Example 318, (R)-2-(4-((6-Methoxypyridin-3-yl)oxy)piperidin-1-yl)-3-methyl-6-(3,3,3-trifluoro-2-hydroxypropyl)-6,7-dihydro-5H-pyrrolo[3,4-b]pyridin-5-one] — 4.2-fold lower, 0.155 µM
- COc1ccc(OC2CCN(c3nc4c(cc3C)C(=O)N(C[C@H](O)C(F)(F)F)C4)CC2)cn1 [Example 319, (S)-2-(4-((6-methoxypyridin-3-yl)oxy)piperidin-1-yl)-3-methyl-6-(3,3,3-trifluoro-2-hydroxypropyl)-6,7-dihydro-5H-pyrrolo[3,4-b] pyridin-5-one] — 6.8-fold lower, 0.096 µM
- CNc1ccc(OC2CCN(c3nc4c(cc3C)C(=O)NC4)CC2)cn1 [Example 320, 3-Methyl-2-(4-((6-(methylamino)pyridin-3-yl)oxy)piperidin-1-yl)-6,7-dihydro-5H-pyrrolo[3,4-b]pyridin-5-one] — 4.3-fold lower, 0.15 µM
- Cc1cc2c(nc1N1CCC(Oc3ccc4c(c3)CC(C)(C)O4)CC1)CNC2=O [Example 321, 2-(4-((2,2-Dimethyl-2,3-dihydrobenzofuran-5-yl)oxy)piperidin-1-yl)-3-methyl-6,7-dihydro-5H-pyrrolo[3,4-b]pyridin-5-one] — 3.4-fold lower, 0.193 µM
- Cc1cc2c(nc1N1CCC(Oc3cnn(CC4CC4)c3)CC1)CNC2=O [Example 321A, 2-(4-((1-(cyclopropylmethyl)-1H-pyrazol-4-yl)oxy)piperidin-1-yl)-3-methyl-6,7-dihydro-5H-pyrrolo[3,4-b]pyridin-5-one] — 1.5-fold lower, 0.434 µM
- Cc1cc2c(nc1N1CCC(Oc3ccc4c(c3)CCOCC4)CC1)CNC2=O [Example 321B, 3-methyl-2-(4-((1,2,4,5-tetrahydrobenzo[d]oxepin-7-yl)oxy)piperidin-1-yl)-6,7-dihydro-5H-pyrrolo[3,4-b]pyridin-5-one] — 7.2-fold lower, 0.091 µM
- COc1ccc(OC2CCN(c3nc4c(cc3C)C(=O)N(C)C4C(C)(C)O)CC2)cn1 (centres unmarked) [Example 322, 7-(2-Hydroxypropan-2-yl)-2-(4-((6-methoxypyridin-3-yl)oxy)piperidin-1-yl)-3,6-dimethyl-6,7-dihydro-5H-pyrrolo[3,4-b]pyridin-5-one] — within 1.5-fold, 0.499 µM
- COc1ccc(OC2CCN(c3nc4c(cc3C)C(=O)N(C)[C@H]4C(C)(C)O)CC2)cn1 [Example 323A, (R)-7-(2-Hydroxypropan-2-yl)-2-(4-((6-methoxpyridin-3-yl)oxy)piperidin-1-yl)-3,6-dimethyl-6,7-dihydro-5H-pyrrolo[3,4-b]pyridin-5-one] — 2.5-fold lower, 0.261 µM
- Cc1cc2c(nc1N1CCC(Oc3ccc4c(c3)CC(O)C4)CC1)CNC2=O (centres unmarked) [Example 324, 2-(4-((2-Hydroxy-2,3-dihydro-1H-inden-5-yl)oxy)piperidin-1-yl)-3-methyl-6,7-dihydro-5H-pyrrolo[3,4-b]pyridin-5-one] — 38-fold lower, 0.017 µM
- Cc1cc2c(nc1N1CCC(Oc3ccc(NCCO)nc3)CC1)CNC2=O [Example 324E, 2-(4-((6-((2-Hydroxyethyl)amino)pyridin-3-yl)oxy)piperidin-1-yl)-3-methyl-6,7-dihydro-5H-pyrrolo[3,4-b]pyridin-5-one] — 1.6-fold lower, 0.42 µM
- Cc1cc2c(nc1N1CCC(Oc3cccc(C#N)c3)CC1)CN(P(=O)(O)O)C2=O [Example 325, Ammonium (2-(4-(3-cyanophenoxy)piperidin-1-yl)-3-methyl-5-oxo-5,7-dihydro-6H-pyrrolo[3,4-b]pyridin-6-yl)phosphonate] — 3.2-fold lower, 0.204 µM
- Cc1cc2c(nc1N1CCC(Oc3ccc(O)nc3)CC1)CNC2=O [Example 326, 2-(4-((6-Hydroxypyridin-3-yl)ox)piperidin-1-yl)-3-methyl-6,7-dihydro-5H-pyrrolo[3,4-b]pyridin-5-one] — 2.5-fold higher, 1.66 µM
- COc1ccc(OC2CCN(c3nc4c(cc3Cl)C(=O)NC4)CC2)cn1 [Example 327, 3-Chloro-2-(4-((6-methoxypyridin-3-yl)ox)piperidin-1-yl)-6,7-dihydro-5H-pyrrolo[3,4-b]pyridin-5-one] — 3.2-fold lower, 0.205 µM
- Cc1c(N2CCC(Oc3ccc4c(c3)COC4)CC2)nc2c(c1C)C(=O)NC2 [Example 328, 2-(4-((1,3-Dihydro-2-benzofuran-5-yl)oxy)piperidin-1-yl)-3,4-dimethyl-6,7-dihydro-5H-pyrrolo[3,4-b]pyridin-5-one] — 11-fold lower, 0.061 µM
- Cc1c(N2CCC(OCC3CCC3)CC2)nc2c(c1C)C(=O)NC2 [Example 330, 2-(4-(cyclobutylmethoxy)piperidin-1-yl)-3,4-dimethyl-6,7-dihydro-5H-pyrrolo[3,4-b]pyridin-5-one] — 13-fold lower, 0.051 µM
- Cc1c(N2CCC(Oc3cnn(C)c3)CC2)nc2c(c1C)C(=O)NC2 [Example 331, 3,4-dimethyl-2-(4-((1-methyl-1H-pyrazol-4-yl)oxy)piperidin-1-yl)-6,7-dihydro-5H-pyrrolo[3,4-b]pyridin-5-one] — 20-fold lower, 0.033 µM
- Cc1c(N2CCC(Oc3ccc4c(c3)COCC4)CC2)nc2c(c1C)C(=O)NC2 [Example 332, 2-(4-(isochroman-7-yloxy)piperidin-1-yl)-3,4-dimethyl-6,7-dihydro-5H-pyrrolo[3,4-b]pyridin-5-one] — 1.8-fold lower, 0.368 µM
- Cc1c(N2CCC(Oc3ccc4c(c3)OCC4)CC2)nc2c(c1C)C(=O)NC2 [Example 333, 2-(4-((2,3-dihydrobenzofuran-6-yl)oxy)piperidin-1-yl)-3,4-dimethyl-6,7-dihydro-5H-pyrrolo[3,4-b]pyridin-5-one] — 18-fold lower, 0.037 µM
